Source: patent US20250230193A1, “CYCLIC COMPOUND HAVING SELECTIVE KRAS INHIBITORY EFFECT ON HRAS AND NRAS” (CHUGAI SEIYAKU KABUSHIKI KAISHA, priority 2022, published 2025)
Read-outs that look alike come from different tables or passages of the source.

Columns and labels:
[1] = tested on: human lung cancer strain NCI-H441
[2] = biological target: GDP-bound NRAS wild-type protein (Homo sapiens, UniProt P01111); assay: Binding to NRAS by surface plasmon resonance (SPR), Single Cycle Kinetics; conditions: SPR; for NRAS/KRAS (ratio of KD value for GDP-bound NRAS wild-type protein to KD value for KRAS): KD ratio class
GDP-bound NRAS wild-type protein, sequence (P01111 whole entry): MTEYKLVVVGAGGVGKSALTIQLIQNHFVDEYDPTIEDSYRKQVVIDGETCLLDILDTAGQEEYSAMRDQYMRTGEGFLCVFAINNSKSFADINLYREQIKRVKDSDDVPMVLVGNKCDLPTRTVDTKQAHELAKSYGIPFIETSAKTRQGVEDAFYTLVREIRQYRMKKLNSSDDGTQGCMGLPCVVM

[3] = biological target: GDP-bound KRAS wild-type protein (Homo sapiens, UniProt P01116); assay: Binding to KRAS by surface plasmon resonance (SPR), Single Cycle Kinetics
[4] = biological target: GDP-bound HRAS wild-type protein (Homo sapiens, UniProt P01112); assay: Binding to HRAS by surface plasmon resonance (SPR), Single Cycle Kinetics; conditions: SPR; for HRAS/KRAS (ratio of KD value for GDP-bound HRAS wild-type protein to KD value for KRAS): KD ratio class
GDP-bound HRAS wild-type protein, sequence (P01112 whole entry): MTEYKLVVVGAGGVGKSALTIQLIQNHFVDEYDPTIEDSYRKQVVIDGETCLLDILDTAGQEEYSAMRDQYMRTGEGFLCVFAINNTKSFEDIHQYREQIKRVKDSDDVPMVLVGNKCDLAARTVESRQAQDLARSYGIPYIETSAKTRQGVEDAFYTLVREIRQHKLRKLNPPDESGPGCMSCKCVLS

[5] = read-out: NCI-H441 IC50, NCI-H441 cells, 4 days, CellTiter-Glo
[6] = SPR, Single Cycle Kinetics; GDP-bound KRAS wild-type protein

| SMILES | IC50 [1, 5] | NRAS/KRAS (ratio of KD value for GDP-bound NRAS wild-type protein to KD value for KRAS) [2] | Kd [3, 6] | HRAS/KRAS (ratio of KD value for GDP-bound HRAS wild-type protein to KD value for KRAS) [4] | also measured |
| --- | --- | --- | --- | --- | --- |
| CCO[C@@H]1C[C@H]2C(=O)NC3(CCCC3)C(=O)N(C)[C@@H](C3CCCC3)C(=O)N(C)[C@H](C(=O)N(C)C)CC(=O)N(C)[C@@H](C)C(=O)N[C@@H]([C@@H](C)CC)C(=O)N(C)CC(=O)N(C)[C@H]3C/C=C\CCN(C3=O)[C@@H](CC3CCC(F)(F)CC3)C(=O)N(C)CC(=O)N[C@@H](CCc3cc(F)c(C(F)(F)F)c(F)c3)C(=O)N2C1 [PP1456] | 90 nM | A (a compound having 10 or more and less than 20 is denoted as A) | 0.12 nM | A (a compound having 10 or more and less than 20 is denoted as A) | – |
| CC[C@H](C)C1NC(=O)[C@H](CC(C)C)N(C)C(=O)C[C@@H](C(=O)N(C)C)N(C)C(=O)[C@H](C2CCCC2)N(C)C(=O)C2(CCCC2)NC(=O)C2CCCN2C(=O)[C@@H](CCc2ccc(C(F)(F)F)c(Cl)c2)NC(=O)CN(C)C(=O)[C@@H](Cc2ccc(C(F)(F)F)cc2)N2CC/C=C\CCN(CC2=O)C(=O)CN(C)C1=O (stereo partly shown) [PP0619] | – | – | – | – | IC50 [1]: 70.7 nM; NRAS/KRAS (ratio of KD value with respect to GDP-bound NRAS wild-type protein to KD value with respect to KRAS) [2]: C (A compound having a KD ratio of 0.1 or more and less than 3 is denoted as C); Kd ([3]; GDP-bound KRAS wild-type protein, SPR Single Cycle Kinetics, 1:1 binding model): 3.7 nM; HRAS/KRAS (ratio of KD value with respect to GDP-bound HRAS wild-type protein to KD value with respect to KRAS) [4]: C (A compound having a KD ratio of 0.1 or more and less than 3 is denoted as C) |
| CCO[C@@H]1C[C@H]2C(=O)NC3(CCC3)C(=O)N(C)[C@@H](C3CCCC3)C(=O)N(C)[C@H](C(=O)N(C)C)CC(=O)N(C)[C@@H](CC3CCCC3)C(=O)N[C@@H]([C@@H](C)CC)C(=O)N(C)CC(=O)N(C)[C@H]3C/C=C\CCN(C3=O)[C@@H](Cc3ccc(C(F)(F)F)cc3)C(=O)N(C)CC(=O)N[C@@H](CCc3ccc4sccc4c3)C(=O)N2C1 [PP1261] | 76.8 nM | A (a compound having 10 or more and less than 20 is denoted as A) | 0.44 nM | A (a compound having 10 or more and less than 20 is denoted as A) | – |
| CCCCCC[C@H]1C(=O)N[C@@H]([C@@H](C)CC)C(=O)N(C)CC(=O)N(C)[C@H]2C/C=C\CCN(C2=O)[C@@H](Cc2ccc(C(F)(F)F)cc2)C(=O)N(C)CC(=O)N[C@@H](CCc2ccc(C(F)(F)F)c(OC)c2)C(=O)N2C[C@H](OCC)C[C@H]2C(=O)NC2(CCC2)C(=O)N(C)[C@@H](C2CCCC2)C(=O)N(C)[C@H](C(=O)N(C)C)CC(=O)N1C [PP1246] | 9 nM | A (a compound having 10 or more and less than 20 is denoted as A) | 0.081 nM | A (a compound having 10 or more and less than 20 is denoted as A) | – |
| CCCCCC[C@H]1C(=O)N[C@@H]([C@@H](C)CC)C(=O)N(C)CC(=O)N(C)[C@H]2C/C=C\CCN(C2=O)[C@@H](Cc2ccc(C(F)(F)F)cc2)C(=O)N(C)CC(=O)N[C@@H](CCc2cc(F)c(C(F)(F)F)c(F)c2)C(=O)N2C[C@H](OCC)C[C@H]2C(=O)NC2(CCC2)C(=O)N(C)[C@@H](C2CCCC2)C(=O)N(C)[C@H](C(=O)N(C)C)CC(=O)N1C [PP1242] | 12.8 nM | A (a compound having 10 or more and less than 20 is denoted as A) | 0.076 nM | A (a compound having 10 or more and less than 20 is denoted as A) | – |
| CCO[C@@H]1C[C@H]2C(=O)NC3(CCC3)C(=O)N(C)[C@@H](C3CCCC3)C(=O)N(C)[C@H](C(=O)N(C)C)CC(=O)N(C)[C@@H](CC(C)C)C(=O)N[C@@H]([C@@H](C)CC)C(=O)N(C)CC(=O)N(C)[C@H]3C/C=C\CCN(C3=O)[C@@H](Cc3ccc(C(F)(F)F)cc3)C(=O)N(C)CC(=O)N[C@@H](CCc3ccc(C(F)(F)F)c(OC)c3)C(=O)N2C1 [PP1245] | 3.7 nM | A (a compound having 10 or more and less than 20 is denoted as A) | 0.06 nM | B (a compound having 3 or more and less than 10 is denoted as B) | – |
| CCO[C@@H]1C[C@H]2C(=O)NC3(CCC3)C(=O)N(C)[C@@H](C3CCCC3)C(=O)N(C)[C@H](C(=O)N3CCOCC3)CC(=O)N(C)[C@@H](CC(C)C)C(=O)N[C@@H]([C@@H](C)CC)C(=O)N(C)CC(=O)N(C)[C@H]3CCCCCN(C3=O)[C@@H](Cc3ccc(F)cc3F)C(=O)N(C)CC(=O)N[C@@H](CCc3cc(F)c(C(F)(F)F)c(F)c3)C(=O)N2C1 [PP0916] | – | – | 0.34 nM | – | IC50 [1]: 35.9 nM; NRAS/KRAS (ratio of KD value with respect to NRAS to KD value with respect to KRAS) ([2]; KD ratio, GDP-bound NRAS wild-type vs GDP-bound KRAS wild-type): B (a compound having 3 or more and less than 10 is denoted as B); HRAS/KRAS (ratio of KD value with respect to HRAS to KD value with respect to KRAS) ([4]; KD ratio, GDP-bound HRAS wild-type vs GDP-bound KRAS wild-type): B (a compound having 3 or more and less than 10 is denoted as B) |
| CC[C@H](C)[C@@H]1NC(=O)[C@H](C)N(C)C(=O)C[C@@H](C(=O)N(C)C)N(C)C(=O)[C@H](C2CCCC2)N(C)C(=O)C2(CCC2)NC(=O)[C@@H]2CCCN2C(=O)[C@H](CCc2cc(F)c(C(F)(F)F)c(F)c2)NC(=O)CN(C)C(=O)[C@H](Cc2ccc(C(F)(F)F)cc2)N2CC/C=C\C[C@@H](C2=O)N(C)C(=O)CN(C)C1=O [PP1271] | 90.7 nM | AA (a compound having 20 or more is denoted as AA) | 0.054 nM | A (a compound having 10 or more and less than 20 is denoted as A) | – |
| CCO[C@@H]1C[C@H]2C(=O)NC3(CCC3)C(=O)N(C)[C@@H](C3CCCC3)C(=O)N(C)[C@H](C(=O)N(C)C)CC(=O)N(C)[C@@H](CC)C(=O)N[C@@H]([C@@H](C)CC)C(=O)N(C)CC(=O)N(C)[C@H]3C/C=C\CCN(C3=O)[C@@H](CC3CCCCC3)C(=O)N(C)CC(=O)N[C@@H](CCc3cc(F)c(C(F)(F)F)c(F)c3)C(=O)N2C1 [PP1466] | 33.2 nM | A (a compound having 10 or more and less than 20 is denoted as A) | 0.14 nM | A (a compound having 10 or more and less than 20 is denoted as A) | – |
| CC[C@H](C)[C@@H]1NC(=O)[C@@H](CC(C)C)N(C)C(=O)CSC[C@H](C(=O)N(C)C)N(C)C(=O)[C@@H](C2CCCC2)N(C)C(=O)C2(CCCC2)NC(=O)[C@@H]2CCCN2C(=O)[C@H](CCc2cc(F)c(C(F)(F)F)c(F)c2)NC(=O)CN(C)C(=O)[C@H](Cc2ccc(C(F)(F)F)cc2)N2CC=CC[C@@H](C2=O)N(C)C(=O)CN(C)C1=O [PP3108] | – | – | – | – | IC50 [1]: 9250 nM; NRAS/KRAS (ratio of KD value with respect to GDP-bound NRAS wild-type protein to KD value with respect to KRAS) ([2]; GDP-bound wild-type proteins): C (A compound having a KD ratio of 0.1 or more and less than 3 is denoted as C); Kd ([3]; SPR Single Cycle Kinetics, GDP-bound KRAS wild-type protein, 1:1 binding model): 870 nM; HRAS/KRAS (ratio of KD value with respect to GDP-bound HRAS wild-type protein to KD value with respect to KRAS) ([4]; GDP-bound wild-type proteins): B (a compound having 3 or more and less than 10 is denoted as B) |
| CCO[C@@H]1C[C@H]2C(=O)NC3(CCC3)C(=O)N(C)[C@@H](C3CCCC3)C(=O)N(C)[C@H](C(=O)N(C)C)CC(=O)N(C)[C@@H](CC(C)C)C(=O)N[C@@H]([C@@H](C)CC)C(=O)N(C)CC(=O)N(C)[C@H]3C/C=C\CCN(C3=O)[C@@H](Cc3ccc(F)cc3)C(=O)N(C)CC(=O)N[C@@H](CCc3cc(F)c(C(F)(F)F)c(F)c3)C(=O)N2C1 [PP1488] | 23.2 nM | A (a compound having 10 or more and less than 20 is denoted as A) | 0.081 nM | B (a compound having 3 or more and less than 10 is denoted as B) | – |
| CCC[C@H]1C(=O)N[C@@H]([C@@H](C)CC)C(=O)N(C)CC(=O)N(C)[C@H]2C/C=C\CCN(C2=O)[C@@H](CC2CCCCC2)C(=O)N(C)CC(=O)N[C@@H](CCc2cc(F)c(C(F)(F)F)c(F)c2)C(=O)N2C[C@H](OCC)C[C@H]2C(=O)NC2(CCC2)C(=O)N(C)[C@@H](C2CCCC2)C(=O)N(C)[C@H](C(=O)N(C)C)CC(=O)N1C [PP1464] | 32.3 nM | A (a compound having 10 or more and less than 20 is denoted as A) | 0.15 nM | A (a compound having 10 or more and less than 20 is denoted as A) | – |
| CC[C@H](C)[C@@H]1NC(=O)[C@H](CC2CC2)N(C)C(=O)C[C@@H](C(=O)N(C)C)N(C)C(=O)[C@H](C2CCCC2)N(C)C(=O)C2(CCCC2)NC(=O)[C@@H]2C[C@H](C)CN2C(=O)[C@H](CCc2cc(F)c(C(F)(F)F)c(F)c2)NC(=O)CN(C)C(=O)[C@H](Cc2ccc(C(F)(F)F)cc2)N2CC/C=C\C[C@@H](C2=O)N(C)C(=O)CN(C)C1=O [PP1511] | 13.7 nM | AA (a compound having 20 or more is denoted as AA) | 0.099 nM | A (a compound having 10 or more and less than 20 is denoted as A) | – |
